In experiment [1] the test system is HNSCC cell lines. In words: Sensitivity of HNSCC cell lines to EGFR-TKi after silencing EPLIN. In kind it is cell-based. Conditions: siRNA silencing of EPLIN; FIG. 6C.
For experiment [2], the system named is HNSCC patient samples. In words: Cancer drug sensitivity testing on nonselected HNSCC patient samples (Misvik Oy). In kind it is cell-based. The note with it: for drug sensitivity: EPLIN positive HNSCC, more than 160 cancer drugs tested, all results not shown. The text has this:
Our proof-of-concept study featured testing the sensitivity of more than 160 cancer drugs on nonselected HNSCC patient samples using an internationally validated method (Misvik Oy, Turku, Finland).

Consider six compounds from patent US20230136717A1, “EPLIN AS A BIOMARKER FOR CANCER” (Turun yliopisto, priority 2020, published 2023).

On to `CNC(=O)CN1CCC(Oc2cc3c(Nc4cccc(Cl)c4F)ncnc3cc2OC)CC1` [AZD8931], for which the “sensitivity of HNSCC cells to the drug on silencing EPLIN expression” value (“sensitivity of HNSCC cells to the drug” below) in experiment [1] is “decreases sensitivity”.

Take `C=CC(=O)Nc1cc(Nc2nccc(-c3cn(C)c4ccccc34)n2)c(OC)cc1N(C)CCN(C)C` [AZD9291]: the “sensitivity of HNSCC cells to the drug” value in experiment [1] is “decreases sensitivity”.

For `C=CC(=O)Nc1cc2c(Nc3ccc(F)c(Cl)c3)ncnc2cc1OCCCN1CCOCC1` [Canertinib], in experiment [2], the drug sensitivity entry is listed as “highest sensitivity”.

As for `C#Cc1cccc(Nc2ncnc3cc(OCCOC)c(OCCOC)cc23)c1` [Erlotinib], in experiment [2], the drug sensitivity entry is listed as “highest sensitivity”. In experiment [2] (several EPLIN positive HNSCC patients, FIG. 7A), the “function as precision therapy” value is recorded as “proven to function as precision therapy”. In experiment [1], the “effect relative to the other tested EGFR-TKis” value is “best result” and the “sensitivity of HNSCC cells to the drug” value is reported as “decreases sensitivity”.

Regarding `COc1cc2ncnc(Nc3ccc(F)c(Cl)c3)c2cc1OCCCN1CCOCC1` [Gefitinib], in experiment [2], the drug sensitivity entry is on record as “highest sensitivity”.

Take `CCOc1cc2ncc(C#N)c(Nc3ccc(OCc4ccccn4)c(Cl)c3)c2cc1NC(=O)/C=C/CN(C)C` [Neratinib]: the “sensitivity of HNSCC cells to the drug” value in experiment [1] is given as “decreases sensitivity”.
